One block for each compound: values may come before it.
Tests used:
[1] = Stability of 1.25 mM coelenterazine-h in 50% ethanol and 50% propylene glycol with or without 225 mM ATT, HPLC and Arrhenius plots; format: physicochemical
Procedure: (§1) The stability of coelenterazine-h in the presence and absence of ATT was measured over time at different temperatures. Specifically, 1.25 mM coelenterazine-h was present in a solution of 50% ethanol and 50% propylene glycol (i.e., the solution without ATT) or a solution of 50% ethanol and 50% propylene glycol with 225 mM ATT (i.e., the solution with ATT). These two solutions were incubated at −20° C., room temperature (RT), 40° C., or 60° C. and analyzed at for 0 days, 1 day, 3 days, 7 days, 15 days, and 30 days.
(§2) Following incubation, high performance liquid chromatography (HPLC) was utilized to identify the components of the respective solutions at each time point. Specifically, an Agilent 1100 HPLC instrument was used and equipped with a quaternary pump, thermostatted autosampler and column compartment, and a G1311B diode-array detector. The column used was a Synergi-MAX-RP (Phenomenex, Torrance, Calif.) 100 AÅ 50×4.6 2.5 μm. The run on the HPLC was a gradient run with 0.1% TFA in water and acetonitrile. Absorbance was measured at 262 nanometers (nm). Standards of coelenterazine-h and its known degradants were run to confirm both the retention time and absorbance trace. 5 μl of each solution was injected and the retention time of coelenterazine-h was 4.7 minutes at room temperature.
(§3) The results of the HPLC analysis are shown below in Tables 4 and 5 and FIGS. 2A and 2B, in which the values are reported as relative peak area percentage at 262 nm (i.e., the lamba max of the substrate). […] In each of FIGS. 2A and 2B, diamond is 1.25 mM coelenterazine-h incubated over time with or without 225 mM ATT, respectively, at −20° C., triangle is 1.25 mM coelenterazine-h incubated over time with or without 225 mM ATT, respectively, at room temperature (RT), star is 1.25 mM coelenterazine-h incubated over time with or without 225 mM ATT, respectively, at 40° C., and cross is 1.25 mM coelenterazine-h incubated over time with or without 225 mM ATT, respectively, at 60° C.
From the HPLC analysis, the half-life of coelenterazine-h in the presence of ATT at 40° C. and 60° C. was calculated to be 20 days and 5 days, respectively, while the half-life of coelenterazine-h in the absence of ATT at 20° C., 40° C. and 60° C. was calculated to be 24 days, 7.5 days and 2 days, respectively (see Table 6 below).
Additionally, Arrhenius plots were generated for coelenterazine-h in the presence and absence of ATT to calculate the half-life of coelenterazine-h at various temperatures. The Arrhenius equation is as follows: […]
In FIG. 9, the slope was −8131.2, the intercept was 22.6157, and R^2 was 0.9994.
In FIG. 10, the slope was −7310.53, the intercept was 21.4386, and R^2 was 0.9964.

[2] = Stability of 1.25 mM coelenterazine-h-h in 50% ethanol and 50% propylene glycol with or without 225 mM ATT, HPLC and Arrhenius plots; format: physicochemical
Procedure: as §1, with “coelenterazine-h-h” for “coelenterazine-h”, “at” for “at for”
as §2, with “coelenterazine-h-h” for “coelenterazine-h”, “coelenterazine-h-h” for “coelenterazine-h was 4.7 minutes”, “temperature was 5.5 minutes.” for “temperature.”
as §3, with “Tables 7” for “Tables 4”, “and 8” for “and 5”, “FIGS. 3A” for “FIGS. 2A”, “and 3B,” for “and 2B,”, “mM coelenterazine-h-h” for “mM coelenterazine-h”
From the HPLC analysis, the half-life of coelenterazine-h-h in the presence of ATT at 60° C. was calculated to be 10 days while the half-life of coelenterazine-h-h in the absence of ATT at 40° C. and 60° C. was calculated to be 27 days and 8 days, respectively (see Table 9 below).
Additionally, Arrhenius plots were generated for coelenterazine-h-h in the presence and absence of ATT to calculate the half-life of coelenterazine-h-h at various temperatures. The Arrhenius equation is as follows: […]
In FIG. 11, the slope was −10740.9, the intercept was 30.0575, and R^2 was 0.9967.
In FIG. 12, the […], and R^2 was 0.9648.

[3] = decomposition of coelenterazine-h
[4] = solution in 50% ethanol and 50% propylene glycol, 40° C., read-out: T1/2 Calculated from Arrhenius (converted)
[5] = solution of 50% ethanol and 50% propylene glycol, 40° C., read-out: T1/2 Estimated from graph (converted)
[6] = solution of 50% ethanol and 50% propylene glycol, 60° C., read-out: T1/2 Estimated from graph (converted)
[7] = decomposition of coelenterazine-h-h

relative peak area percentage at 262 nm ([1]; 40° C., 0 days): 95.5%
relative peak area percentage at 262 nm ([1]; 40° C., 1 day): 84.3%
relative peak area percentage at 262 nm ([1]; 40° C., 3 days): 71.5%
relative peak area percentage at 262 nm ([1]; 40° C., 7 days): 54.2%
relative peak area percentage at 262 nm ([1]; 40° C., 15 days): 26.7%
relative peak area percentage at 262 nm ([1]; 40° C., 30 days): 1.6%
relative peak area percentage at 262 nm ([1]; 60° C., 0 days): 95.5%
relative peak area percentage at 262 nm ([1]; 60° C., 1 day): 63.6%
relative peak area percentage at 262 nm ([1]; 60° C., 3 days): 32.3%
relative peak area percentage at 262 nm ([1]; 60° C., 7 days): 1.2%
relative peak area percentage at 262 nm ([1]; RT, 0 days): 95.5%
relative peak area percentage at 262 nm ([1]; RT, 1 day): 92.9%
relative peak area percentage at 262 nm ([1]; RT, 3 days): 88.1%
relative peak area percentage at 262 nm ([1]; RT, 7 days): 80.7%
relative peak area percentage at 262 nm ([1]; RT, 15 days): 66.7%
relative peak area percentage at 262 nm ([1]; RT, 30 days): 36.6%
half-life at 1.25 mM [1, 4]: 4.7 days
half-life at 1.25 mM ([1]; solution of 50% ethanol and 50% propylene glycol, 20° C., read-out: T1/2 Calculated from Arrhenius (converted)): 23.2 days
half-life at 1.25 mM ([1]; solution of 50% ethanol and 50% propylene glycol, 20° C., read-out: T1/2 Estimated from graph (converted)): 24 days
half-life at 1.25 mM [1, 5]: 7.5 days
half-life at 1.25 mM ([1]; solution of 50% ethanol and 50% propylene glycol, 60° C., read-out: T1/2 Calculated from Arrhenius (converted)): 1.2 days
half-life at 1.25 mM [1, 6]: 2 days
half-life at 1.25 mM ([1]; solution of 50% ethanol and 50% propylene glycol, −20° C., read-out: T1/2 Calculated from Arrhenius (converted)): 1210 days
relative peak area percentage at 262 nm ([1]; −20° C., 0 days): 95.5%
relative peak area percentage at 262 nm ([1]; −20° C., 1 day): 95.4%
relative peak area percentage at 262 nm ([1]; −20° C., 3 days): 95.0%
relative peak area percentage at 262 nm ([1]; −20° C., 7 days): 95.0%
relative peak area percentage at 262 nm ([1]; −20° C., 15 days): 94.6%
relative peak area percentage at 262 nm ([1]; −20° C., 30 days): 88.8%
Structure (SMILES): O=c1c(Cc2ccccc2)nc2c(Cc3ccccc3)[nH]c(-c3ccc(O)cc3)cn1-2 [Coelenterazine-h (15-957-39), coelenterazine-h]
Arrhenius plot intercept [1, 3]: 21.4386
Arrhenius plot slope [1, 3]: −7310.53

relative peak area percentage at 262 nm ([2]; 40° C., 0 days): 98.7%
relative peak area percentage at 262 nm ([2]; 40° C., 1 day): 98.0%
relative peak area percentage at 262 nm ([2]; 40° C., 3 days): 95.1%
relative peak area percentage at 262 nm ([2]; 40° C., 7 days): 89.1%
relative peak area percentage at 262 nm ([2]; 40° C., 15 days): 74.9%
relative peak area percentage at 262 nm ([2]; 40° C., 30 days): 46.0%
relative peak area percentage at 262 nm ([2]; 60° C., 0 days): 98.7%
relative peak area percentage at 262 nm ([2]; 60° C., 1 day): 94.3%
relative peak area percentage at 262 nm ([2]; 60° C., 3 days): 80.0%
relative peak area percentage at 262 nm ([2]; 60° C., 7 days): 59.1%
relative peak area percentage at 262 nm ([2]; 60° C., 15 days): 0.2%
relative peak area percentage at 262 nm ([2]; RT, 0 days): 98.7%
relative peak area percentage at 262 nm ([2]; RT, 1 day): 98.2%
relative peak area percentage at 262 nm ([2]; RT, 3 days): 97.5%
relative peak area percentage at 262 nm ([2]; RT, 7 days): 94.4%
relative peak area percentage at 262 nm ([2]; RT, 15 days): 86.6%
relative peak area percentage at 262 nm ([2]; RT, 30 days): 85.7%
half-life at 1.25 mM ([2]; solution in 50% ethanol and 50% propylene glycol, 20° C., read-out: T1/2 Calculated from Arrhenius (converted)): 172 days
half-life at 1.25 mM [2, 4]: 16.9 days
half-life at 1.25 mM ([2]; solution in 50% ethanol and 50% propylene glycol, 60° C., read-out: T1/2 Calculated from Arrhenius (converted)): 2.2 days
half-life at 1.25 mM [2, 5]: 27 days
half-life at 1.25 mM [2, 6]: 8 days
relative peak area percentage at 262 nm ([2]; −20° C., 0 days): 98.7%
relative peak area percentage at 262 nm ([2]; −20° C., 1 day): 98.6%
relative peak area percentage at 262 nm ([2]; −20° C., 3 days): 98.2%
relative peak area percentage at 262 nm ([2]; −20° C., 7 days): 98.4%
relative peak area percentage at 262 nm ([2]; −20° C., 15 days): 97.9%
relative peak area percentage at 262 nm ([2]; −20° C., 30 days): 98.5%
Structure (SMILES): O=c1c(Cc2ccccc2)nc2c(Cc3ccccc3)[nH]c(-c3ccccc3)cn1-2 [Coelenterazine-h-h (1193-25-1), coelenterazine-h-h]
Arrhenius plot intercept [2, 7]: 30.8352
Arrhenius plot slope [2, 7]: −10650.1
